The source of these data is patent publication US20200397738A1, “METHODS FOR TREATING CANCER AND PROTECTING RENEWABLE TISSUES” (President and Fellows of Harvard College, priority 2018, published 2020).

The subject of one data set is p53. Description: RT-qPCR of CDKN1A/p21 in MCF-7 cells (marker of p53 activity). Conditions: MCF-7, 0-100 μg/ml. The class given is cell-based, human.
The target of data set [1] is MDM2/MDMX-mediated p53 ubiquitination (Homo sapiens, UniProt O15151+Q00987). The experiment in a line: cell-free assay with purified proteins, p53 ubiquitination. The class given is biochemical.
Sequence of MDM2/MDMX-mediated p53 ubiquitination (Q00987 whole entry): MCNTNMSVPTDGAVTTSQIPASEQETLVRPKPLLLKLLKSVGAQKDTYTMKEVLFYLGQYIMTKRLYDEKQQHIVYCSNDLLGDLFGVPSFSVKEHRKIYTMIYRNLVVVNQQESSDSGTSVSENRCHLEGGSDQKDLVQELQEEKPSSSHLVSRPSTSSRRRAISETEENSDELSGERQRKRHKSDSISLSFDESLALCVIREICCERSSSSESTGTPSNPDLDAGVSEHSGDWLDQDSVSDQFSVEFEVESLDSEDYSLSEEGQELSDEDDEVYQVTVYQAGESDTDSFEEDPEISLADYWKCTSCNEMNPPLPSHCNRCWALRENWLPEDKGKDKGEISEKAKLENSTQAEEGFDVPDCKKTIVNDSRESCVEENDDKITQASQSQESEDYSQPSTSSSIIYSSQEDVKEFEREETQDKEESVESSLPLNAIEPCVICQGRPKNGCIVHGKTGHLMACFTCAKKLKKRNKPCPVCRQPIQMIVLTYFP
Sequence of MDM2/MDMX-mediated p53 ubiquitination (O15151 whole entry): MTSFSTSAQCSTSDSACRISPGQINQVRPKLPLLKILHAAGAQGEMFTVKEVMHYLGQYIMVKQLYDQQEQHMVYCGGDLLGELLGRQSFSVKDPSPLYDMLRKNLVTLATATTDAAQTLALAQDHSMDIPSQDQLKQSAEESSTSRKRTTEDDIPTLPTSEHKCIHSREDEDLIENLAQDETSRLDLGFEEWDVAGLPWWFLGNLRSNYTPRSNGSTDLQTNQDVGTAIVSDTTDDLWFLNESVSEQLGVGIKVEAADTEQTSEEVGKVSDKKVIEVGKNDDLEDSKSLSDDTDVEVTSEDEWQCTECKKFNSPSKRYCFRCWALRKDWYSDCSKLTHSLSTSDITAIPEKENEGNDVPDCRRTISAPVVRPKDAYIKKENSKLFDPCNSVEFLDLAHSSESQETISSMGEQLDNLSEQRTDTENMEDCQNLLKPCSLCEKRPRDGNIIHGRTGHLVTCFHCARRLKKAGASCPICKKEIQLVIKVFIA
The subject of a further data set is thymocytes. Description: IR-induced killing of thymocytes, cell count. The class given is cell-based, mice. The protocol:
Thymocytes isolated from wildtype mice were treated with 2 μg/ml of Compound 1 for 24 hours, in absence or presence of 2 μM GSK126, followed by 0 Gy or 5 Gy IR. Cell numbers were counted 48 hours after IR to assess the effect of Compound 1 and EZH2 inhibition on IR-induced killing.

Data set [2] relates to thymus, spleen and duodenum. Description: TUNEL analysis of IR- and doxorubicin-induced apoptosis in renewable tissues. The data set is classed as in vivo, wild-type mice. The method, then: To assess the protective effects of Compound 1 on renewable tissues, wild-type mice were injected with Compound 1 at a dose of 4 mg/kg IP for 19 hours before 4 Gy ionizing radiation (IR) or exposure to doxorubicin (20 mg/kg).

In data set [3] the test system is EZH2. Description: half-life of EZH2 in splenocytes with cycloheximide. The class given is cell-based, mouse. Conditions: 2 μg/ml 24 hours, then 100 μg/ml cycloheximide. The method, then:
(§1) Half-life of EZH2 was measured in splenocytes isolated from wildtype mouse that had been pretreated with 2 μg/ml of Compound 1 for 24 hours followed by 100 μg/ml cycloheximide (CHX). […] To further confirm the effect of Compound 1 on EZH2 and H3K27me3, thymocytes isolated from wildtype mice were treated with 0, 0.5, 1, 3 or 5 μg/ml of Compound 1 for 12 hours. […] Furthermore, to validate the effect of Compound 1 on EZH2 and H3K27me3 in renewable tissues, wildtype mice were treated with 0 or 4 mg/kg of Compound 1 for 19 hours.

In another data set the test system is MCF-7 xenograft tumors. Description: growth of MCF-7 xenograft tumors. Conditions: 10 mg/kg IP daily, compared to vehicle-treated mice. The class given is in vivo. An excerpt: Expression of GLUT1 and PGK1 serves as markers of aggressive biological behavior and identifies a worse prognosis in breast cancer patients.
Data set [4] concerns EZH2. The experiment in a line: Western blot of EZH2 and H3K27me3 in thymocytes. The class given is cell-based, mice. Conditions: thymocytes, 0.5, 1, 3 or 5 μg/ml, 12 hours. The method, then: as §1
Background: In western blotting, separated proteins are transferred to a membrane and probed.

Data set [5] concerns EZH2. Description: immunostaining of EZH2 and H3K27me3 in renewable tissues. The class given is in vivo, mice. Conditions: thymus, spleen and duodenum, 4 mg/kg, 19 hours. The method, then: as §1
Data set [6] addresses T1, MDM2/MDMX complex (Homo sapiens, UniProt O15151+Q00987).
T1 construct: expressed in transfected cells
The experiment in a line: cell-based mammalian two-hybrid assay.

For data set [7], the target named is T2, MDM2/MDMX complex (Mus musculus, UniProt O35618+P23804).
T2 construct: endogenous in cells; host or cells: primary splenocytes from wild-type mice
T2 sequence (P23804 whole entry): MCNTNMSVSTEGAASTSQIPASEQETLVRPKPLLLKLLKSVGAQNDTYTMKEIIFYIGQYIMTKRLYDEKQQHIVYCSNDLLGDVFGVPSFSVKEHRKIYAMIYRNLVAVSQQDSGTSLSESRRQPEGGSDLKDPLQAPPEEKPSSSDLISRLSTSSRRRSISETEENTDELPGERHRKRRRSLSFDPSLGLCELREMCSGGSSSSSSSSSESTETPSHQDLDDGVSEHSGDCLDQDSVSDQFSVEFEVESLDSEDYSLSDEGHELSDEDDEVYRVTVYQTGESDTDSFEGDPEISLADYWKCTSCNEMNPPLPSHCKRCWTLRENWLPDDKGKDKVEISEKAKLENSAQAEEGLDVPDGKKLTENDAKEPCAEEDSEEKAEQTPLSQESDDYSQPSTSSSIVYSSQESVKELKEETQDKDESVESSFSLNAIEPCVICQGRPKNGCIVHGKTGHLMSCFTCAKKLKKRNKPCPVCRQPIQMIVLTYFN
T2 sequence (O35618 whole entry): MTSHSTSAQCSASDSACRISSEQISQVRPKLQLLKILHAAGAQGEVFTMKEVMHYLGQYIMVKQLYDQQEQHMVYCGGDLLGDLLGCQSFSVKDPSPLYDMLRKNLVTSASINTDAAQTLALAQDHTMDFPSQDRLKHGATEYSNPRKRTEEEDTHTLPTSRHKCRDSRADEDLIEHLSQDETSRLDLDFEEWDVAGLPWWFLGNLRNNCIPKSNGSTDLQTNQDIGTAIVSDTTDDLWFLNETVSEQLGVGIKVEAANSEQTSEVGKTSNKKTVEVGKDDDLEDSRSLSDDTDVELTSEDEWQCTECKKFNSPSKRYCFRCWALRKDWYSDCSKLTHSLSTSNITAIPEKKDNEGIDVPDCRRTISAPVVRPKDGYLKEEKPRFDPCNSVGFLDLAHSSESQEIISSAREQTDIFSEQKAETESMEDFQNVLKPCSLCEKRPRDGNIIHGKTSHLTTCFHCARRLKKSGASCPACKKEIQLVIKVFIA
The experiment in a line: immunoprecipitation with anti-Mdmx antibody and immunoblot in splenocytes. The class given is cell-based. Particulars: splenocytes from wild-type mice, 2 or 5 μg/ml, 24 hour. The protocol:
A small molecule compound, referred to herein as Compound 1 was used to dissociate and reduce the MDM2/MDMX complex, and preserve p53. […] To further verify this finding, splenocytes from wild-type mice were treated with 2 or 5 μg/ml of Compound 1, or vehicle for 24 hour.

The test system of a further data set is HIF1. The experiment in a line: RT-qPCR of ALDHA in MCF-7 cells (marker of HIF1 activity). The data set is classed as cell-based, human. Conditions: MCF-7, 0-100 μg/ml. Background: Quantitative PCR measures a nucleic acid by following its amplification.
Data set [8] relates to human breast cancer cells MCF-7. Description: MCF-7 cell proliferation. The class given is cell-based. Particulars: MCF-7, 10 μM. The method, then: To assess the impact of Compound 1 on cell proliferation, human breast cancer cells MCF-7 were treated with 10 μM of Compound 1.
Another data set deals with MCF-7 tumor xenografts. The experiment in a line: immunohistochemical analysis of MCF-7 tumor xenografts. The class given is in vivo. Conditions: 10 mg/kg IP daily, relative to vehicle-treated mice.
The subject of data set [9] is thymus, spleen and duodenum. Description: TUNEL analysis of IR- and doxorubicin-induced apoptosis in renewable tissues. The class given is in vivo, wild-type mice. Particulars: doxorubicin 20 mg/kg alone (Compound 1 0 mg/kg).
The test system of the next data set is thymus. Description: acute toxicity experiment, caspase-3 in thymus. Particulars: 200 mg/kg, 24 hours.

T1 sequence (Q00987 whole entry): as the sequence (Q00987 whole entry) above
T1 sequence (O15151 whole entry): as the sequence (O15151 whole entry) above
Source text for HIF1: The expression level of ALDHA was used as surrogate marker to assess the activity of HIF1.

For the compound `COC(=O)C1(Cc2ccc(C)c(C/C=C(/C)Cl)c2)OC(=O)C(O)C1c1ccc(O)cc1` (stereo not drawn) [Compound 1], the “mRNA level of p21” value in the data set with p53 is “little induction”. The “MDM2/MDMX-mediated p53 ubiquitination and degradation” value in [1] was “blocking MDM2/MDMX-mediated p53 ubiquitination and degradation”. Besides, in the data set with thymocytes (2 μg/ml 24 hours, 5 Gy IR, counted 48 hours after IR), the IR-induced cell death result was “significantly attenuated”. Moreover, the TUNEL apoptosis amounted to 1 ± 0.3% in [2] (Duodenum, 4 Gy IR, Compound 1 4 mg/kg IP 19 hours before); 0% in [2] (Duodenum, Control (no IR or doxorubicin), Compound 1 4 mg/kg IP); 3 ± 0.1% in data set [2] (Duodenum, doxorubicin 20 mg/kg, Compound 1 4 mg/kg IP 19 hours before); 7 ± 0.2% in data set [2] (Spleen, 4 Gy IR, Compound 1 4 mg/kg IP 19 hours before); 0% in data set [2] (Spleen, Control (no IR or doxorubicin), Compound 1 4 mg/kg IP); 1 ± 0.1% in data set [2] (Spleen, doxorubicin 20 mg/kg, Compound 1 4 mg/kg IP 19 hours before). Further, the TUNEL apoptosis in [2] (Thymus, 4 Gy IR, Compound 1 4 mg/kg IP 19 hours before) turned out to be 22 ± 4%; in [2] (Thymus, Control (no IR or doxorubicin), Compound 1 4 mg/kg IP) it was 0%; in data set [2] (Thymus, doxorubicin 20 mg/kg, Compound 1 4 mg/kg IP 19 hours before), 1 ± 0.2%. In addition, in the data set with EZH2 [3], the “half-life of EZH2” value is “prolonged half-life”. In addition, the tumor growth result with MCF-7 xenograft tumors is “significant growth delay”. Moreover, the “level of EZH2” value in the data set on EZH2 [4] is on record as “significantly induced levels”. The “level of H3K27me3” value with EZH2 [4] is listed as “significantly induced levels”. Further, the EZH2 immunostaining entry with EZH2 [5] is “induction”. Besides, the H3K27me3 immunostaining result in the data set on EZH2 [5] was “induction”. Moreover, the results for the “disassociation of the MDM2/MDMX complex” value on MDM2/MDMX complex [6] and at MDM2/MDMX complex [7] were “dose-dependent disassociation” and “disassociation”, respectively. Moreover, the “mRNA level of ALDHA” value in the data set with HIF1 is given as “significant decrease”. Moreover, the cell proliferation entry in [8] was “considerable reduction in cell proliferation”. Further, in the data set with MCF-7 tumor xenografts, the “expression of PUMA in tumors” value is on record as “little to no change”. Moreover, the “expression of p21 in tumors” value with MCF-7 tumor xenografts was “little to no change”. The “glycolytic marker GLUT1 in tumors” value with MCF-7 tumor xenografts is given as “lower level”. Further, in the data set with MCF-7 tumor xenografts, the “glycolytic marker PGK1 in tumors” value is recorded as “lower level”. Besides, the “p53 level in tumors” value with MCF-7 tumor xenografts was “readily detectable levels of p53”. The “proliferation marker Ki-67 in tumors” value in the data set with MCF-7 tumor xenografts is listed as “lower level”.

Consider `COc1cccc2c1C(=O)c1c(O)c3c(c(O)c1C2=O)C[C@@](O)(C(=O)CO)C[C@@H]3O[C@H]1C[C@H](N)[C@H](O)[C@H](C)O1` [Doxorubicin, doxorubicin], for which the TUNEL apoptosis in [9] (Duodenum) was 15 ± 1.1%; in [9] (Spleen), 22 ± 0.2%; in data set [9] (Thymus), 15 ± 0.1%.

As to `CC[C@H](C)n1cc(C)c2c(C(=O)NCc3c(C)cc(C)[nH]c3=O)cc(-c3ccc(N4CCNCC4)nc3)cc21` [GSK126, reference compound], the “protective effect of Compound 1 against IR-induced cell death” value in the data set with thymocytes (2 μM GSK126 with 2 μg/ml Compound 1, 5 Gy IR) is given as “reversed”.

Turning to `COc1ccc(C2=N[C@@H](c3ccc(Cl)cc3)[C@@H](c3ccc(Cl)cc3)N2C(=O)N2CCNC(=O)C2)c(OC(C)C)c1` [Nutlin 3A], in the data set with thymus, the “caspase-3 activation (apoptosis) in thymus” value was “considerable apoptosis”.
